Laboratory results as given in US10568854B2, “Compositions and methods for treating kabuki syndrome and related disorders” (THE JOHNS HOPKINS UNIVERSITY, priority 2014, dated 2020).
“Also recorded” adds a separate entry of the source.

Experiments:
[1] = tested on: Kmt2d^+/βGeo mice (mouse model of Kabuki syndrome); experiment: Morris water maze (Example 1); format: in vivo; details: 10 mg/kg/day
Text: Animals: Kmt2d^+/βGeo mice, also named Mll2Gt^(RRt024)Byg, were acquired from Bay Genomics (University of California). All experimental mice were on a mixed C57BL/6J and 129/SvEv background. Expected Mendelian ratios were observed when heterozygous animals were bred to wild-type. In heterozygous crosses, however, there was uniform embryonic lethality of homozygotes by ED12, the earliest developmental stage assayed. For treatment with AR-42 mice were orally gavaged daily with drug (Selleck Chemicals, Houston, Tex.) solubilized in vehicle (0.5% methylcellulose, 0.1% Tween-80, water) or with vehicle alone. Drug delivery information was kindly provided by Drs. […] For quantification of DCX positive cells, doses of 0, 5, 10 and 25 mg/kg/day were used. […] Maxillary protrusion was evaluated by ten investigators blinded to genotype and they were asked to rate maxillary protrusion on radiographs as either large (2) or small (1). […]
Morris water maze: Mice were placed in a 1.1 meter diameter tank filled with room temperature water dyed with non-toxic white paint. […] Latency to reach the platform was measured during each trial. […] Average number of crossings of the platform's previous location was recorded. […] For all training and probe testing, data was recorded both manually and electronically with ANY-maze software (San Diego Instruments, San Diego, Calif.) when applicable. […]

[2] = tested on: H3K4 trimethylation activity in Kmt2d^+/βGeo and Kmt2d^+/+ MEFs; experiment: H3K4me3 indicator in murine embryonic fibroblasts (MEFs); format: cell-based, mouse
Text: An H3K4 trimethylation reporter was also created. This reporter is based on the H3 tail on one end and the TBP associated factor III (TAFIII) homeodomain on the other end; the TAFIII homeodomain only identifies and binds to trimethylated K4 on H3. When the H3K4 site gets trimethylated, the TAFIII homeodomain can bind to the modified H3 tail and bring the two parts of the separated GFP in close proximity. The activity of the epigenetic modification system can be quantified through fluorescence.
Epigenetic reporter alleles: Epigenetic reporter alleles were synthesized (OriGene, Rockville, Md.) using published sequences for component elements (Baird et al. (1999) Proc. Nail. Acad. Sci. 96:11241-6; Souslova et al. (2007) BMC Biotechnol. 7:37). Single nucleotide mutations were created using the QuickChange Lightening kit (Agilent Technologies Inc, Santa Clara, Calif.). For H4ac indicator, K5R, K8R, K12R, K16R and K20R (MUT indicator) were introduced. For H3K4me3 indicator, K4Q and D890A/W891A and M882A (three separate constructs) were introduced. For transient transfections, mouse embryonic fibroblasts (see below) were transfected with Fugene HD (Promega, Madison, Wis.), 48 hours prior to FACS. […] For drug stimulation, drug was added to the media 24 hours prior to FACS. For stable transfections in T293 (American Type Culture Collection) cells, 10 μg/ml of Blastocidin (Life Technologies, Carlsbad, Calif.) was added to the media for several weeks. For stable transfection in MEFs, the reporter was transferred to a ViraPower Lentiviral Expression System (Life Technologies, Carlsbad, Calif.). After selection with Blastocidin, the drug of interest was added 24 hours prior to FACS. SAHA, AR-42 and MS275 were purchased from Selleck (Selleck Chemicals, Houston, Tex.). […] FACS data were analyzed using FlowJo (Tree Star Inc, Ashland, Oreg.). A plasmid expressing HDAC3 was acquired from Addgene (Cambridge, Mass., plasmid 13819) and transfected into a stable cell line carrying the H4 acetyl reporter allele.

In the case of `CC(C)[C@H](C(=O)Nc1ccc(C(=O)NO)cc1)c1ccccc1` [AR-42, (S)—N-hydroxy-4-(3-methyl-2-phenylbutanamido)benzamide], the “frequency of platform crossing during probe trial” value [1] is reported as “improved performance for both genotypes; also recorded: normalized”, the “escape latency during training, with versus without drug” value ([1]; Kmt2d^+/βGeo animals) is reported as “No significant difference is observed” and the “dose at which Kmt2d^+/βGeo MEFs achieve untreated wild-type levels of H3K4me3 indicator activity” value ([2]; Kmt2d^+/βGeo MEFs) is reported as 5 µM. For the same compound, the H3K4 trimethylation activity ([2]; Kmt2d^+/βGeo cells treated with HDAC inhibitor) was “enhanced” and the “H3K4me3 indicator activity in MEFs” value ([2]; both genotypes (Kmt2d^+/βGeo, Kmt2d^+/+)) was “dose-dependent response”.
